This is an account of results in article PMC12320245 (International Journal of Biological Sciences, 2025).

Test [1] concerns cultured cortical astrocytes. Kind of test: p-PKA substrate Western blot in astrocytes. The conditions noted are these: 10 µM AMX for 1 and 4 hours. It is filed as cell-based. Background: In western blotting, separated proteins are transferred to a membrane and probed.
Test [2] has as its system primary hippocampal neurons. Kind of test: Scratch injury: lysosomal zinc (FluoZin-3 / LysoTracker). It is filed as cell-based, rat. The conditions noted are these: scratched neurons, 24 hours after scratch. How it is done: (§1) Primary hippocampal neurons were obtained from embryonic day 18 (E18) Sprague-Dawley rat embryos. Pregnant rats were anesthetized using 2-3% isoflurane in a gas mixture of 70% nitrous oxide and 30% oxygen. Following euthanasia, the hippocampi were carefully dissected, minced, and enzymatically dissociated using TrypLE Express (Gibco, NY, USA) for 10 minutes at 37°C. The tissue was further mechanically dissociated using fire-polished glass pipettes, and the resulting cell suspension was filtered through a 70 μm cell strainer to remove debris. Neurons were seeded at a density of 3 × 10^5 cells per well in 24-well plates pre-coated with poly-L-lysine (Sigma-Aldrich, Saint Louis, MO, USA). Cells were maintained in neurobasal medium supplemented with B-27 (Thermo Fisher Scientific, Waltham, MA, USA), GlutaMAX (Gibco), and penicillin-streptomycin. The cultures were incubated at 37.5°C in a humidified atmosphere containing 5% CO₂. After seven days of growth, neurons were fixed with 4% paraformaldehyde (PFA) for 15 minutes at room temperature and subsequently stored at 4°C until their further use for immunostaining.
(§2) A scratch injury model was used to mimic TBI in vitro. […] After the treatment period, neuronal damage and recovery were assessed using appropriate evaluation methods.

The test system of test [3] is primary hippocampal neurons. Kind of test: Scratch injury: cell viability analysis. The conditions noted are these: scratched neurons, 24 hours post-scratch, 10 μM AMX. It counts as cell-based, rat. How it is done: as §1, with “After seven days of growth, neurons were fixed with 4% paraformaldehyde (PFA) for 15 minutes at room temperature and subsequently stored at 4°C until their further use for immunostaining.” left out
as §2
[…] After incubation, absorbance was measured at 450 nm using a microplate reader (Spectramax, Molecular Devices Co., CA, USA). […]

In a further test the test system is TBI rats. Kind of test: Controlled cortical impact TBI: Morris water maze. It counts as in vivo, rat. The conditions noted are these: vs TBI-vehicle. The procedure:
(§3) This study used male Sprague-Dawley rats weighing 300-350 g and aged 8 weeks, obtained from DBL Co. (Chungcheongbuk-do, Republic of Korea). The rats were housed in a controlled environment with a temperature of 20 ± 2 °C, a relative humidity of 55 ± 5%, and a 12-hour light/dark cycle. They were provided ad libitum access to food and water. To minimize stress associated with transportation, animals underwent a one-week acclimatization period before the start of the experiments. All experimental procedures were conducted in compliance with the guidelines of the National Institutes of Health for the care and use of laboratory animals and were approved by the Hallym University Institutional Animal Care and Use Committee (protocol # Hallym 2022-23, approved on July 15, 2022). This manuscript follows the principles outlined in the Animal research: reporting in vivo experiments (ARRIVE) guidelines.
A controlled cortical impact (CCI) model was used to induce TBI in rats. Animals were anesthetized with 1-1.5% isoflurane in a 30:70 oxygen-to-nitrous oxide mixture and securely positioned in a stereotaxic frame. A 3 mm craniotomy was performed using a portable drill at a site 2.8 mm lateral to the midline and 3.0 mm posterior to Bregma. TBI was induced using an Impact One™ Stereotaxic Impactor (Leica Biosystems) equipped with a 3 mm flat-tip, set to deliver an impact at a velocity of 5 m/s and a depth of 3 mm. Throughout the procedure, body temperature was maintained at 36-37.5°C using a homeothermic blanket system to prevent hypothermia. […] At designated time points (3 hours, 24 hours, or 2 weeks post-injury), animals were euthanized via transcardial perfusion with saline, followed by 4% paraformaldehyde (PFA). Brains were post-fixed in 4% PFA for 1 hour, cryoprotected in 30% sucrose, and sectioned at a 30 μm thickness using a cryostat microtome (CM1850; Leica, Wetzlar, Germany). Brain sections were stored in cryoprotectant solution at 4°C until further analysis.
The MWM is a well-established behavioral test used to assess cognitive function in rodents. […] The following parameters were recorded during the training sessions: 1) escape latency (time taken to reach the platform), 2) distance traveled to locate the platform, and 3) the number of target crossings (times the platform location was crossed). […] The time spent in the target quadrant (where the platform had been located during training) and the number of crossings over the platform location were recorded. Behavioral data, including escape latency, distance traveled, target crossings, and time spent in the target quadrant, were tracked and analyzed using smart video-tracking software (Panlab, Carrer de l'Energia, Spain).

Test [4] relates to ipsilateral hippocampus of TBI rats. Kind of test: Controlled cortical impact TBI: IgG extravasation (BBB integrity). The note with it: 24 hours and 2 weeks post-TBI. It counts as in vivo, rat. The procedure: as §3
A controlled cortical impact (CCI) model was used to induce TBI in rats. Animals were anesthetized with 1-1.5% isoflurane in a 30:70 oxygen-to-nitrous oxide mixture and securely positioned in a stereotaxic frame. A 3 mm craniotomy was performed using a portable drill at a site 2.8 mm lateral to the midline and 3.0 mm posterior to Bregma. […]

Each structure is given as a SMILES string. Entries after “also recorded” stand apart in the source; their conditions may differ.

Turning to `CC(C)c1ccc2oc3nc(N)c(C(=O)O)cc3c(=O)c2c1` [AMX, amlexanox], the p-PKA levels result in test [1] is recorded as “increased p-PKA levels”. The “lysosomal zinc levels (FluoZin-3 / LysoTracker)” value in test [2] was “restored lysosomal zinc levels to near-normal levels”. Further, in test [3], the cell viability entry is recorded as “substantially improved cell viability”. For the same molecule, in the test on TBI rats (days 8-12 post-TBI), the “MWM distance to the hidden platform” value was “reduced target distances” and the MWM escape latency result was “shorter escape latency”. Further, in the test on TBI rats (probe trial), the MWM platform crossings entry is on record as “more frequent platform crossings” and the “MWM time spent in the target quadrant” value is “increased time spent in the target quadrant”. The “IgG extravasation (BBB integrity)” value in test [4] is reported as “reduces this leakage; also recorded: significantly reduced IgG extravasation”.
